Like-named read-outs stand apart in the source and are kept apart here.
Columns and labels:
SMN2 mRNA = assay: RT-qPCR splicing assay, SMN2 canonical junction (CJ) mRNA; type: cell-based, human; details: Homo sapiens; Table 5 panel; canonical junction qPCR; compound concentration having 50% response in CJ decrease; read-out: SMN2 IC50 (decrease in CJ mRNA levels)
In short: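 Read-out is canonical exon-exon junction mRNA quantified by RT-qPCR against a GAPDH, GUSB or PPIA control. Cells (A673 or K562) received compound for 24 h, top final dose 10 uM in an 11-point 3-fold series.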

HTT mRNA = assay: RT-qPCR splicing assay, HTT canonical junction (CJ) and alternative junction (AJ) mRNA; type: cell-based, human; details: Homo sapiens; for AC50: increase in HTT alternative junction (AJ) mRNA, read-out: HTT AJ AC50
In short: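 A673 or K562 cells were treated for 24 h at 37 °C with an 11-point 3-fold compound dilution series (top final concentration 10 uM, DMSO ≤0.25%). After lysis, one-step TaqMan RT-qPCR quantified junction transcripts, normalized to PPIA for A673 or to GAPDH/GUSB for K562.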

[1] = decrease in HTT canonical junction (CJ) mRNA, RT-qPCR, read-out: HTT CJ IC50
[2] = Table 5 panel, canonical junction qPCR, compound concentration having 50% response in CJ decrease, read-out: HTT IC50 (decrease in CJ mRNA levels)

Row | Structure (SMILES) | IC50 (SMN2 mRNA) [nM] | IC50 (HTT mRNA; [1]) [nM] | AC50 (HTT mRNA; RT-qPCR) [nM] | IC50 (HTT mRNA; [2]) [nM]
1 | Cc1cn2cc(-c3ccc4c(=O)n([C@H]5CCCNC5)ccc4c3)cc(F)c2n1 [Compound 404, 6-{8-fluoro-2-methylimidazo[1,2-a]pyridin-6-yl}-2-[(3S)-piperidin-3-yl]isoquinolin-1-one] | < 100 | 1000 to 10000 | 1000 to 10000 | 1000 to 10000
2 | Cc1cn2nc(-c3ccc4c(=O)n([C@H]5CCNC6(CC6)C5)ccc4c3)cc(C)c2n1 [Compound 445] | < 100 | < 100 | < 100 | < 100
3 | Cc1cn2cc(-c3ccc4c(=O)n(C5CCNC6(CC6)C5)ncc4c3)cc(Cl)c2n1 (stereo not shown) [Compound 510] | < 100 | 1000 to 10000 | 100 to 1000 | 100 to 1000
4 | Cn1cc2nc(-c3ccc4c(=O)n(C5CCNC6(CC6)C5)ncc4c3)ccc2n1 (stereo not shown) [Compound 511] | < 100 | 100 to 1000 | 100 to 1000 | 100 to 1000
5 | Cc1cn2nc(-c3ccc4c(=O)n([C@@H]5CCNC[C@H]5F)ncc4c3)cc(C)c2n1 [Compound 379] | 100 to 1000 | 100 to 1000 | 100 to 1000 | 100 to 1000
6 | Cc1cn2nc(-c3cc(F)c4c(=O)n([C@@H]5CCNC6(CC6)C5)ncc4c3)cc(C)c2n1 [Compound 446] | < 100 | < 100 | < 100 | < 100
7 | Cc1cn2cc(-c3ccc4c(=O)n(C5CCNCC5)cc(C)c4c3)cc(F)c2n1 [Compound 440, 6-{8-fluoro-2-methylimidazo[1,2-a]pyridin-6-yl}-4-methyl-2-(piperidin-4-yl)isoquinolin-1-one] | < 100 | 100 to 1000 | 100 to 1000 | 100 to 1000

Reference: patent publication US20250332173A1, “COMPOUNDS AND METHODS FOR MODULATING NUCLEIC ACID SPLICING” (REMIX THERAPEUTICS INC., priority 2021, published 2025)
